≈ marks a conversion by molar mass, not a printed value. Read-outs that look alike come from different tables or passages of the source.
How the values were obtained:
[1] = tested on: rat mast cells stimulated with concanavalin A and sensitized with immunoglobulin E; parameters: method as in PMID 2453615; conditions: cited from earlier work
Escherichia coli = tested on: Escherichia coli; parameters: method as in PMID 16042337; conditions: microdilution broth assays; cited from earlier work
Streptococcus mutans = tested on: Streptococcus mutans; parameters: method as in PMID 16042337; conditions: microdilution broth assays; cited from earlier work
Staphylococcus aureus = tested on: Staphylococcus aureus; parameters: method as in PMID 16042337; conditions: microdilution broth assays; cited from earlier work
[2] = tested on: Leishmania (L.) infantum (MHOM/BR/74/PP75) promastigotes; assay: Anti-promastigote activity, MTT colorimetric assay; format: cell-based
Experimental: (§1) Promastigotes of Leishmania (V.) braziliensis (MHOM/BR/75/M2903) and Leishmania (L.) infantum (MHOM/BR/74/PP75) were grown in a biphasic medium. The solid phase was composed of Nicolle–Novy–MacNeals (NNN) medium with 15% defibrillated rabbit blood. Already in the liquid phase, we employed Roswell Park Memorial Institute (RPMI)-1640 (Sigma-Aldrich, St. Louis, USA) or Liver Infusion Tryptose (LIT) medium with 15% fetal bovine serum (Gibco – Thermo Fisher Scientific, Waltham USA), both supplemented with 1% of penicillin-streptomycin antibiotic solutions (10.000 U/mL of penicillin and 10.000 μg/mL of streptomycin; Gibco – Thermo Fisher Scientific, Waltham, USA). Cultures were maintained in an incubator at 25°C until parasites reached logarithmic phase (4 days). Next, the cultures were centrifuged and the pellet was suspended in RPMI-1640 or LIT for counting promastigotes using a Neubauer hemocytometer under an optical microscope (Axiostar Plus Carl Zeiss, Jena, Germany) at 400x magnification. Subsequently, parasites were diluted in RPMI-1640 or LIT medium at a final concentration of 1 x 10^6parasites/mL for use in antileishmanial assays.
(§2) The 50% inhibitory concentration (IC50) against L. (V.) braziliensis and L. (L.) infantum was evaluated by determination of the parasite viability using the colorimetric 3-(4,5-dimethylthiazol-2-yl)-2,5-diphenyltetrazolium bromide (MTT) method.[19] Initially, 100 μL of the promastigote suspension prepared in RPMI-1640 or LIT medium (1 × 10^6cells/mL) was added in each well of the 96-well microplate. Parasites were then treated with two-fold serial dilutions (from 3.12 to 400 µg/mL) of Bex-derived analogs prepared in 10% dimethyl sulfoxide (DMSO) (Sigma-Aldrich, St. Louis, USA) and the microplates were incubated at 25°C for 48 h. Next, 20 μL of MTT solution at 5 mg/mL (Sigma-Aldrich, St. Louis, USA) was added to the parasite cultures and the plates were covered with laminated paper and incubated at 37°C for 4 h. Finally, the plates were centrifuged at 1500 rpm for 15 min at 4°C (Heraeus-Megafuge 11R Centrifuge - Thermo Fisher Scientific, Waltham USA) and the formazan crystals formed were dissolved by the addition of 200 μL 10% DMSO. After further incubation for 5 min at room temperature, absorbance at 570 nm of samples measured using a microplate reader (Metller Toledo, Brazil). Meglumine antimoniate (Glucantime®Sanofi-aventis, France) and amphotericin B (Eurofarma, Brazil) were included as positive controls, and 10% DMSO solution was used as a solvent control. Samples containing RPM1-1640 or LIT only were used to control the sterility of media and samples containing inoculum and medium, but not compounds, were employed as growth controls.

[3] = tested on: Leishmania (V.) braziliensis (MHOM/BR/75/M2903) promastigotes; assay: Anti-promastigote activity, MTT colorimetric assay; format: cell-based
Experimental: as §1, §2

Cytotoxicity, MTT assay = format: cell-based; conditions: hamster spleen cells, 48 h exposure
Experimental: (§3) Hamster spleen cells were used to test cytotoxicity. The cells were kindly provided by Dr. Rosy Iara Maciel de Azambuja Ribeiro from of Laboratory of Experimental Pathology/UFSJ. The cells were cultivated in saline solution (NaCl 0.9%; Synth, Brazil) and maintained at 37°C in an incubator with an atmosphere containing 5% CO2 (Thermo Fisher Scientific, Waltham, USA).
(§4) Cytotoxic concentration determinations for 50% of the cells in culture (CC50) were evaluated by using the colorimetric 3-(4,5-dimethylthiazol-2-yl)-2,5-diphenyltetrazolium bromide (MTT) method, following protocols outlined in a previous study.[19] Briefly, spleen cells were exposed for 48h to several concentrations of compounds (3, 6.25, 12.5, 25, 50, 100, 200, 400 and 800 µg/mL) and, afterward, the MTT assay was used to quantify the cell viability as was done using the anti-promastigote assay. Finally, CC50 values were calculated by linear regression analysis of absorbance values obtained previously.[20]
(§5) The selectivity of Bex analogs and antileishmanial agents was determined to evaluate the safety of compounds. Thus, the selectivity index (SI) was calculated through the ratio between the CC50 of compounds against the hamster spleen cells and the geometric mean (GM) of IC50 values calculated for L. (V.) braziliensis and L. (L.) infantum.[21] In the case where CC50 was higher than the highest concentration tested of the compound, to calculate the SI, the value used was 400. The larger SI was indicative of a safer molecule.

Hamster spleen cells = assay: Cytotoxicity, MTT assay; format: cell-based; conditions: 48 h exposure
Experimental: as §3, §4, §5

Klebsiella pneumoniae = tested on: Klebsiella pneumoniae; parameters: method as in PMID 26166773; conditions: disc diffusion, 2 mg/disk; cited from earlier work
Pseudomonas aeruginosa = tested on: Pseudomonas aeruginosa; parameters: method as in PMID 26166773; conditions: disc diffusion, 2 mg/disk; cited from earlier work
[4] = tested on: S. aureus methicillin-resistant; parameters: method as in PMID 26166773; conditions: disc diffusion, 2 mg/disk; cited from earlier work
Bacillus subtilis = tested on: Bacillus subtilis; parameters: method as in PMID 26166773; conditions: disc diffusion, 2 mg/disk; cited from earlier work
[5] = tested on: E. coli extended-spectrum β-lactamases produced; parameters: method as in PMID 26166773; conditions: disc diffusion, 2 mg/disk; cited from earlier work
Enterococcus faecalis = tested on: Enterococcus faecalis; parameters: method as in PMID 26166773; conditions: disc diffusion, 2 mg/disk; cited from earlier work
[6] = tested on: reverse transcriptase from human immunodeficiency virus(HIV); conditions: cited from earlier work
[7] = promastigotes, LIT medium, 48 h, 25°C, MTT, read-out: IC50 L. infantum LIT
[8] = promastigotes, RPMI-1640 medium, 48 h, 25°C, MTT, read-out: IC50 L. infantum RPMI-1640
[9] = promastigotes, LIT medium, 48 h, 25°C, MTT, read-out: IC50 L. braziliensis LIT
[10] = promastigotes, RPMI-1640 medium, 48 h, 25°C, MTT, read-out: IC50 L. braziliensis RPMI-1640
[11] = geometric mean of IC50 in LIT and RPMI-1640, read-out: GM (geometric mean of IC50 values) L. infantum
[12] = geometric mean of IC50 in LIT and RPMI-1640, read-out: GM (geometric mean of IC50 values) L. braziliensis
[13] = geometric mean of IC50 in LIT and RPMI-1640
[14] = promastigotes, LIT medium, 48 h, 25°C, MTT
[15] = promastigotes, RPMI-1640 medium, 48 h, 25°C, MTT

Compound | IC50 [2, 7] | IC50 [2, 8] | IC50 [3, 9] | IC50 [3, 10] | IC50 [2, 11] | IC50 [3, 12] | CC50 at 48 h (Cytotoxicity, MTT assay) | also measured
COc1ccc2c(c1)OC(O)C(=O)N2 (centres unmarked) [HMBOA] |  |  |  |  |  |  |  | Effect on levels of histamine released from rat mast cells [1]: able to reduce levels of histamine
O=C1C(O)Oc2ccccc2N1O (centres unmarked) [DIBOA, 2,4-dihydroxy-1,4-benzoxazin-3-one] |  |  |  |  |  |  |  | Concentration exhibiting antibacterial effects (Escherichia coli): 1,000 μg/mL; Concentration exhibiting antibacterial effects (Streptococcus mutans): 500 µg/mL; Concentration exhibiting antibacterial effects (Staphylococcus aureus): 500 µg/mL
CCCCC1Oc2cccnc2N(O)C1=O (centres unmarked) [Pyr5] | 135 ± 4.13 µg/mL (≈ 607 µM) | 143 ± 4.25 µg/mL (≈ 643 µM) | 142 ± 3.67 µg/mL (≈ 639 µM) | 154 ± 3.85 µg/mL (≈ 693 µM) |  |  |  | 
O=c1[nH]c2ccccc2o1 [BOA, benzoxazolin-2-one] |  |  |  |  |  |  |  | Concentration exhibiting antibacterial effects (Escherichia coli): 1,000 μg/mL; Concentration exhibiting antibacterial effects (Streptococcus mutans): 500 µg/mL; Concentration exhibiting antibacterial effects (Staphylococcus aureus): 500 µg/mL
O=C1COc2cccnc2N1O [Pyr1] | 99 ± 5.61 µg/mL (≈ 596 µM) | 103 ± 5.64 µg/mL (≈ 620 µM) | 108 ± 5.91 µg/mL (≈ 650 µM) | 115 ± 6.04 µg/mL (≈ 692 µM) | 101 µg/mL (≈ 608 µM) | 111 µg/mL (≈ 671 µM) | > 400 µg/mL | 
Meglumine antimoniate [reference compound] |  |  |  |  |  |  |  | GM (geometric mean of IC50 values) L. infantum [2, 13]: 99.47 µg/mL; IC50 L. infantum LIT [2, 14]: 97 ± 3.14 µg/mL; IC50 L. infantum RPMI-1640 [2, 15]: 102 ± 3.54 µg/mL; GM (geometric mean of IC50 values) L. braziliensis [3, 13]: 97.5 µg/mL; IC50 L. braziliensis LIT [3, 14]: 97 ± 4.34 µg/mL; IC50 L. braziliensis RPMI-1640 [3, 15]: 98 ± 4.45 µg/mL; CC50 (Hamster spleen cells): >400 µg/mL
O=C1Nc2ccccc2OC1O (centres unmarked) [HBOA, 2-hydroxy-1,4-benzoxazin-3-one] |  |  |  |  |  |  |  | Concentration exhibiting antibacterial effects (Escherichia coli): 1,000 μg/mL; Concentration exhibiting antibacterial effects (Streptococcus mutans): 500 µg/mL; Effect on levels of histamine released from rat mast cells [1]: able to reduce levels of histamine; Concentration exhibiting antibacterial effects (Staphylococcus aureus): 500 µg/mL
CCC1Oc2ccccc2N(O)C1=O (centres unmarked) [Bex3] | 89 ± 6.43 µg/mL (≈ 461 µM) | 93 ± 6.48 µg/mL (≈ 481 µM) | 92 ± 6.19 µg/mL (≈ 476 µM) | 97 ± 6.24 µg/mL (≈ 502 µM) | 91 µg/mL (≈ 471 µM) | 94.5 µg/mL (≈ 489 µM) | 106 ± 2.26 µg/mL (≈ 547 µM) | 
CCCC1Oc2cccnc2N(O)C1=O (centres unmarked) [Pyr4] | 91 ± 6 µg/mL (≈ 437 µM) | 95 ± 6.05 µg/mL (≈ 456 µM) | 98 ± 5.94 µg/mL (≈ 471 µM) | 103 ± 5.99 µg/mL (≈ 495 µM) | 93 µg/mL (≈ 447 µM) | 100 µg/mL (≈ 483 µM) | 202 ± 2.11 µg/mL (≈ 969 µM) | 
O=C1COc2ccccc2N1O [Bex1] | 174 ± 3.39 µg/mL (≈ 1050 µM) | 188 ± 3.58 µg/mL (≈ 1140 µM) | 212 ± 6.04 µg/mL (≈ 1280 µM) | 238 ± 6.57 µg/mL (≈ 1440 µM) |  |  |  | 
CC1Oc2ccccc2N(O)C1=O (centres unmarked) [Bex2] | 106 ± 5.61 µg/mL (≈ 592 µM) | 111 ± 5.69 µg/mL (≈ 620 µM) | 103 ± 4.36 µg/mL (≈ 575 µM) | 109 ± 4.44 µg/mL (≈ 608 µM) | 108 µg/mL (≈ 605 µM) | 106 µg/mL (≈ 591 µM) | 274.3 ± 1.87 µg/mL (≈ 1530 µM) | 
COc1ccc2c(c1)OC(O)C(=O)N2O (centres unmarked) [DIMBOA, 2,4-dihydroxy-7-methoxy-1,4-benzoxazin-3-one] |  |  |  |  |  |  |  | Antibacterial activity (Klebsiella pneumoniae): active; Antibacterial activity (Pseudomonas aeruginosa): active; Antibacterial activity [4]: active; Antibacterial activity (Bacillus subtilis): active; Antibacterial activity [5]: active; Antibacterial activity (Enterococcus faecalis): active
CC1Oc2cccnc2N(O)C1=O (centres unmarked) [Pyr2] | 112 ± 5.34 µg/mL (≈ 622 µM) | 118 ± 5.45 µg/mL (≈ 655 µM) | 100 ± 5.18 µg/mL (≈ 555 µM) | 105 ± 5.23 µg/mL (≈ 583 µM) | 115 µg/mL (≈ 638 µM) | 102 µg/mL (≈ 569 µM) | > 400 µg/mL | 
CCC1Oc2cccnc2N(O)C1=O (centres unmarked) [Pyr3] | 149 ± 6.35 µg/mL (≈ 767 µM) | 160 ± 6.62 µg/mL (≈ 824 µM) | 141 ± 5.94 µg/mL (≈ 726 µM) | 152 ± 6.17 µg/mL (≈ 783 µM) |  |  |  | 
C[C@@H]1[C@H](O)[C@@H](C)/C=C/C=C/C=C/C=C/C=C/C=C/C=C/[C@H](O[C@@H]2O[C@H](C)[C@@H](O)[C@H](N)[C@@H]2O)C[C@@H]2O[C@](O)(C[C@@H](O)C[C@@H](O)[C@H](O)CC[C@@H](O)C[C@@H](O)CC(=O)O[C@H]1C)C[C@H](O)[C@H]2C(=O)O [ANFO, Amphotericin B, reference compound] | 41.6 ± 4.27 µg/mL (≈ 45.1 µM) | 41.5 ± 0.99 µg/mL (≈ 44.9 µM) | 33.3 ± 3.66 µg/mL (≈ 36 µM) | 33.4 ± 3.01 µg/mL (≈ 36.1 µM) | 41.5 µg/mL (≈ 45 µM) | 33.4 µg/mL (≈ 36.1 µM) | 89.3 ± 2.24 µg/mL (≈ 96.7 µM) | 
COc1ccc2[nH]c(=O)oc2c1 [MBOA, 6-methoxy-benzoxazolin-2-one] |  |  |  |  |  |  |  | Effect on levels of histamine released from rat mast cells [1]: able to reduce levels of histamine; Inhibition of HIV reverse transcriptase [6]: able to inhibit

Source: article PMC6983991, “Toxicity and Anti-promastigote Activity of Benzoxazinoid Analogs Against Leishmania (Viannia) braziliensis and Leishmania (Leishmania) infantum” (Advanced Pharmaceutical Bulletin, 2019)
